Measurements from US10221197B2, “Phosphatidylinositol 3-kinase inhibitors” (Gilead Sciences, Inc., priority 2014, dated 2019).

How the values were obtained:
Format in all cases: biochemical
[1] = biological target: PI3Kβ (Homo sapiens (Human), UniProt P42338); experiment: TR-FRET enzymatic assay of PI3K isoforms (PI3Kβ); conditions: TR-FRET, 2×Km ATP, 2 μM PIP2, incubated for 30 minutes at 25° C.; read-out: β IC50
Method: (§1) The compounds of formula (I) were characterized for their enzymatic activity against the PI3K isoforms. Certain compounds of the present application, including certain compounds of formula (II) and (III) were also characterized for their enzymatic activity against PI3K isoforms. The activities were measured using a time-resolved fluorescence resonance energy transfer (TR-FRET) assay.

[2] = biological target: PI3Kγ (Homo sapiens (Human), UniProt P48736); experiment: TR-FRET enzymatic assay of PI3K isoforms (PI3Kγ); conditions: TR-FRET, 2×Km ATP, 2 μM PIP2, PI3Kγ at 2 nM, incubated for 30 minutes at 25° C.; read-out: γ IC50
Method: as §1

[3] = biological target: PI3Kδ (Homo sapiens (Human), UniProt O00329); experiment: TR-FRET enzymatic assay of PI3K isoforms (PI3Kδ); conditions: 2×Km ATP, 2 μM PIP2, incubated for 30 minutes at 25° C., read-out: δ IC50
Method: as §1

PI3Kγ, sequence (P48736 whole entry, canonical isoform): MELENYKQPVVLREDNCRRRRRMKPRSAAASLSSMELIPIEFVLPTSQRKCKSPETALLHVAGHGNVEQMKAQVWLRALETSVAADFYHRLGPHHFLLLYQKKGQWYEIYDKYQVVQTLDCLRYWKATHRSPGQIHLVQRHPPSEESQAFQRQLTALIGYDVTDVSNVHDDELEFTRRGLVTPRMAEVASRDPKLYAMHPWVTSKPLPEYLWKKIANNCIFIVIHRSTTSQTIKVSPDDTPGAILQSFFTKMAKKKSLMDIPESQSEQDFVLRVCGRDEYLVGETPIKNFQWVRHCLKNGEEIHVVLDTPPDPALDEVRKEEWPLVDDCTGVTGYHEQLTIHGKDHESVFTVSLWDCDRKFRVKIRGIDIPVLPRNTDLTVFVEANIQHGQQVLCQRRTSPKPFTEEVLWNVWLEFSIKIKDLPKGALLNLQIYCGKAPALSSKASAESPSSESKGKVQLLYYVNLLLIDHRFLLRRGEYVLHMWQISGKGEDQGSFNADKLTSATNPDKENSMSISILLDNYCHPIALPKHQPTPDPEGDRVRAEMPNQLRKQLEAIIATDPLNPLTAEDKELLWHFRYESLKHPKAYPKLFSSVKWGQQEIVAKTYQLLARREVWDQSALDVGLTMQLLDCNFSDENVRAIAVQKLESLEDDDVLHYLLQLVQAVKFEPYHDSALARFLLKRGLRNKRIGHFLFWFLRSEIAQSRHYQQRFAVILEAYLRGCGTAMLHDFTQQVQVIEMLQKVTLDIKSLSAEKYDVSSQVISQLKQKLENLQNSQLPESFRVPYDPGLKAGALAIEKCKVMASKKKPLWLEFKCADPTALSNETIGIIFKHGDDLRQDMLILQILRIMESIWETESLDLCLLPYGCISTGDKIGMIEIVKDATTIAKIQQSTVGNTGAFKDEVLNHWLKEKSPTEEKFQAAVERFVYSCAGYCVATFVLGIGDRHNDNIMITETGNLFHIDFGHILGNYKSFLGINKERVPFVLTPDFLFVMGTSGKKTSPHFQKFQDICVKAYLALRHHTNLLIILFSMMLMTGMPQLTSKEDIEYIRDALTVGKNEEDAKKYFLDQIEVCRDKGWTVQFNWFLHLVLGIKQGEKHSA
PI3Kγ, sequence (Q8WYR1 whole entry partner, canonical isoform): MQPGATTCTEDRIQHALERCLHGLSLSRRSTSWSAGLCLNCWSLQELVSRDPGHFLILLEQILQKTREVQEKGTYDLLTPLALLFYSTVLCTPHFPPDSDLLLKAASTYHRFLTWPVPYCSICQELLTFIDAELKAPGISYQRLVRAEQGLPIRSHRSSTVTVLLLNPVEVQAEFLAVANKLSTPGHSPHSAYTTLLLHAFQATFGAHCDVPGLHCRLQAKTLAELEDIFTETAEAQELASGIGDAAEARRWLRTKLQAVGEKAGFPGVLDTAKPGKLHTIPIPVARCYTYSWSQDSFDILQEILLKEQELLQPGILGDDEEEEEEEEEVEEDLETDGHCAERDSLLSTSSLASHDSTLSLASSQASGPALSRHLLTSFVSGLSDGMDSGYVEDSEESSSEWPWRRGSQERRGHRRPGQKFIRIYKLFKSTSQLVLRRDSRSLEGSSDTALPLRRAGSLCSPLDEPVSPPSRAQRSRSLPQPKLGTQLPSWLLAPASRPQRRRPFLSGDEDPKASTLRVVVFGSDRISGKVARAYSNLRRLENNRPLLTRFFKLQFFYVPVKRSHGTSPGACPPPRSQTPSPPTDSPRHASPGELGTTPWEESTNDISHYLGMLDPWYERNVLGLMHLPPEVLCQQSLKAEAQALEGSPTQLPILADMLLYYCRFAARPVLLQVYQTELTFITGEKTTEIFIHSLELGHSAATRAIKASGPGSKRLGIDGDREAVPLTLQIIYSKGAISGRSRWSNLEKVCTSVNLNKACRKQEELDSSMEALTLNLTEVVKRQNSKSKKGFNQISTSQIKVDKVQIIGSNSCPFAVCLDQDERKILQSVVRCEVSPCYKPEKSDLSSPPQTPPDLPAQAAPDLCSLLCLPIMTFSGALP
PI3Kβ, sequence (P42338 whole entry, canonical isoform): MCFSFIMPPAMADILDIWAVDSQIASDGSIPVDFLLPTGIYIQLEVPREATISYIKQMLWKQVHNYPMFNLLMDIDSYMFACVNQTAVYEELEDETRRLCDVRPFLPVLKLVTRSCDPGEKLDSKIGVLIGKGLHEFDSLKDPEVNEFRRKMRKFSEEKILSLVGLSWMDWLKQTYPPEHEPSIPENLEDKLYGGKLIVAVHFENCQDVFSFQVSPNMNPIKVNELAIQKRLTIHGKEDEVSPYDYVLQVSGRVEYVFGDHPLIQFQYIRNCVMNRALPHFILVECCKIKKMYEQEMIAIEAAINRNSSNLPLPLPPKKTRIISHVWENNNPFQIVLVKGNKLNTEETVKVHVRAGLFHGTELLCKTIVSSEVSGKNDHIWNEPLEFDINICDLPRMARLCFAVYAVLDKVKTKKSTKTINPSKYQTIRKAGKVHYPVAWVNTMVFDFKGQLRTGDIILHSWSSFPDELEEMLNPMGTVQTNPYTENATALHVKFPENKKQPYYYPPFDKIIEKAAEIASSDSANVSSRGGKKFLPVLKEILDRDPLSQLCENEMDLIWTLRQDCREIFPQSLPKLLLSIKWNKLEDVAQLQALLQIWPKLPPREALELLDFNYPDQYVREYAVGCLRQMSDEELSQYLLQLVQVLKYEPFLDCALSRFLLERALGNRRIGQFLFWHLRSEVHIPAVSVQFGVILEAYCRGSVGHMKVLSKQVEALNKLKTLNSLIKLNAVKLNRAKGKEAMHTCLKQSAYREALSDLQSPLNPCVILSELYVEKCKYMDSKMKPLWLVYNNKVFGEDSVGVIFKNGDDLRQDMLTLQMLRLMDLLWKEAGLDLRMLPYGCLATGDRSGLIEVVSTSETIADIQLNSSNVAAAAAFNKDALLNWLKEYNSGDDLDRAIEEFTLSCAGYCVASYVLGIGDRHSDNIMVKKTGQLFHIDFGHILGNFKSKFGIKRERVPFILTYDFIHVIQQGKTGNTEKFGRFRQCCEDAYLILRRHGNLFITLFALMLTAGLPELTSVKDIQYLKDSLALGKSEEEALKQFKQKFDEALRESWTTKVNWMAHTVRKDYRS
PI3Kβ, sequence (P27986 whole entry partner, canonical isoform): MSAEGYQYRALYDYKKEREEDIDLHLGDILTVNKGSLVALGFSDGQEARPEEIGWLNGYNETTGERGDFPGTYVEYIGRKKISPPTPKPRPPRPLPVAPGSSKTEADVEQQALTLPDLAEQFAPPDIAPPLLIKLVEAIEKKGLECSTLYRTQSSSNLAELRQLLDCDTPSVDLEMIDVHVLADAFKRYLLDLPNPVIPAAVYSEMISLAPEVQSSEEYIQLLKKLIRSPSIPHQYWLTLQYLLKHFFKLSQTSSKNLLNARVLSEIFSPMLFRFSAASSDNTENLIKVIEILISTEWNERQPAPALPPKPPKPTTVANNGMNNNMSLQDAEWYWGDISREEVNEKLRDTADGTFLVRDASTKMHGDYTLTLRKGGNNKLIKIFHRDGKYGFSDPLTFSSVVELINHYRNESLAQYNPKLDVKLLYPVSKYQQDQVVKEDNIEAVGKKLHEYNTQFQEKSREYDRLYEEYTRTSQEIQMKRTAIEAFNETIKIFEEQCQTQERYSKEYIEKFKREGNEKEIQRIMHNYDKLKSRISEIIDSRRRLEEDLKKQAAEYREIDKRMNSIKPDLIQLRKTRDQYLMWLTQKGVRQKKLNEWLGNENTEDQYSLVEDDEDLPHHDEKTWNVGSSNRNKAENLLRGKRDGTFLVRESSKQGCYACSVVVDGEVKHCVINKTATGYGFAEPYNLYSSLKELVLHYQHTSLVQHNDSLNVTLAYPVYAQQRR
PI3Kδ, sequence (O00329 whole entry, canonical isoform): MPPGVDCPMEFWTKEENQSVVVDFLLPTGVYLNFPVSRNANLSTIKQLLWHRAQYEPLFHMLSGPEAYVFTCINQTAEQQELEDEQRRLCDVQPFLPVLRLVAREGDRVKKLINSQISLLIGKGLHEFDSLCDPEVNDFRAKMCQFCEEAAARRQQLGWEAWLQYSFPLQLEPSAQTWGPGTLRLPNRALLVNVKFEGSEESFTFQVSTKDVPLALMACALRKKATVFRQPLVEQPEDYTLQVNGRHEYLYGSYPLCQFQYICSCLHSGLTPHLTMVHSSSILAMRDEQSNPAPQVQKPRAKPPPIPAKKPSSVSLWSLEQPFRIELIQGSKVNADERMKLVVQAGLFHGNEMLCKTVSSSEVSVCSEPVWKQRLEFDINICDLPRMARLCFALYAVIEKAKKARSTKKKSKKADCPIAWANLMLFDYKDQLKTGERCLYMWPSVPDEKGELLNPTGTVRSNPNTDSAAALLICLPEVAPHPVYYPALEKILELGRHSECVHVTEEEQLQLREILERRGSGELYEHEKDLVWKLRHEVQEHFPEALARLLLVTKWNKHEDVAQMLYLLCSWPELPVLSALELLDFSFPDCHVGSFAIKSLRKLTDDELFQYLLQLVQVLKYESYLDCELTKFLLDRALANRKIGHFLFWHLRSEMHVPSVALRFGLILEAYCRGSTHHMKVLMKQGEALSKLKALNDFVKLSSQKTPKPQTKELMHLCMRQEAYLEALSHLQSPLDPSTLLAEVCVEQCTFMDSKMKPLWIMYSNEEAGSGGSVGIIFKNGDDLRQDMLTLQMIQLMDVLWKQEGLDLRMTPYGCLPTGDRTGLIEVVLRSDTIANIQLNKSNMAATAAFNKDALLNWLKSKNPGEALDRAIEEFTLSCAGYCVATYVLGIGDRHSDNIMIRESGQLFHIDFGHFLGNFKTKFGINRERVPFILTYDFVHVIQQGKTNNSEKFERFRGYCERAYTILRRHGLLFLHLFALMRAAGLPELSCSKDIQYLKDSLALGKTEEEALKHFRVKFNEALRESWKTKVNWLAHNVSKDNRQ
PI3Kδ, sequence (P27986 whole entry partner, canonical isoform): as the sequence (P27986 whole entry partner, canonical isoform) above

Row | SMILES | IC50 [1] [µM] | IC50 [2] [µM] | IC50 [3] [µM]
1 | C[C@H](Nc1ncnc(N)c1C#N)c1nc2cccc(Cl)c2c(=O)n1-c1cccc(NC(=O)NC2CCCCC2)c1 [Compound 122, (S)-1-(3-(2-(1-((6-amino-5-cyanopyrimidin-4-yl)amino)ethyl)-5-chloro-4-oxoquinazolin-3(4H)-yl)phenyl)-3-cyclohexylurea] | 0.003 | 2 | 0.004
2 | CCNC(=O)Nc1cccc(-n2c([C@@H](Nc3ncnc(N)c3[N+](=O)[O-])[C@@H](C)CC)nc3cccc(Cl)c3c2=O)c1 [Compound 43, 1-(3-(2-((1S,2S)-1-((6-amino-5-nitropyrimidin-4-yl)amino)-2-methylbutyl)-5-chloro-4-oxoquinazolin-3(4H)-yl)phenyl)-3-ethylurea] | 0.018 | > 10 | 0.013
3 | C[C@H](Nc1ncnc(N)c1C#N)c1nc2cccc(Cl)c2c(=O)n1-c1cccc(NC(N)=O)c1 [Compound 88, (S)-1-(3-(2-(1-((6-amino-5-cyanopyrimidin-4-yl)amino)ethyl)-5-chloro-4-oxoquinazolin-3(4H)-yl)phenyl)urea] | 0.004 | 2.7 | 0.002
4 | CCNC(=O)Nc1cccc(-n2c([C@H](C)Nc3ncnc(N)c3C#N)nc3c(F)cccc3c2=O)c1 [Compound 49, (S)-1-(3-(2-(1-((6-amino-5-cyanopyrimidin-4-yl)amino)ethyl)-8-fluoro-4-oxoquinazolin-3(4H)-yl)phenyl)-3-ethylurea] | 0.23 | > 10 | 0.024
5 | C[C@H](Nc1ncnc2[nH]cnc12)c1nc2cccc(Cl)c2c(=O)n1-c1cccc(NC(=O)Nc2ccccc2C(F)(F)F)c1 [Compound 102, (S)-1-(3-(2-(1-((9H-purin-6-yl)amino)ethyl)-5-chloro-4-oxoquinazolin-3(4H)-yl)phenyl)-3-(2-(trifluoromethyl)phenyl)urea] | 0.007 | 0.67 | 0.031
6 | CCC[C@H](Nc1nc(N)nc(N)c1Cl)c1nc2cccc(Cl)c2c(=O)n1-c1cccc(C(N)=O)c1 [Compound 23, (S)-3-(5-chloro-2-(1-((2,6-diamino-5-chloropyrimidin-4-yl)amino)butyl)-4-oxoquinazolin-3(4H)-yl)benzamide] | 0.012 | 3.9 | 0.002
7 | C[C@H](Nc1ncnc(N)c1C#N)c1nc2cccc(Cl)c2c(=O)n1-c1cccc(NC(=O)NC2(C(F)(F)F)CC2)c1 [Compound 75, (S)-1-(3-(2-(1-((6-amino-5-cyanopyrimidin-4-yl)amino)ethyl)-5-chloro-4-oxoquinazolin-3(4H)-yl)phenyl)-3-(1-(trifluoromethyl)cyclopropyl)urea] | 0.01 | > 10 | 0.009
8 | CNC(=O)Nc1cccc(-n2c([C@H](C)Nc3ncnc4[nH]cnc34)nc3cccc(Cl)c3c2=O)c1 [Compound 87, (S)-1-(3-(2-(1-((9H-purin-6-yl)amino)ethyl)-5-chloro-4-oxoquinazolin-3(4H)-yl)phenyl)-3-methylurea] | 0.021 | 4.5 | 0.033
9 | CCNC(=O)Nc1cccc(-n2c([C@H](C)Nc3ncnc(N)c3C#N)nc3cccc(C)c3c2=O)c1 [Compound 55, (S)-1-(3-(2-(1-((6-amino-5-cyanopyrimidin-4-yl)amino)ethyl)-5-methyl-4-oxoquinazolin-3(4H)-yl)phenyl)-3-ethylurea] | 0.012 | 1.8 | 0.003
10 | CCNC(=O)Nc1cccc(-n2c([C@H](C)Nc3ncnc(N)c3C#N)nc3cccc(F)c3c2=O)c1 [Compound 47, (S)-1-(3-(2-(1-((6-amino-5-cyanopyrimidin-4-yl)amino)ethyl)-5-fluoro-4-oxoquinazolin-3(4H)-yl)phenyl)-3-ethylurea] | 0.036 | > 10 | 0.026
11 | C[C@H](Nc1nc(N)nc(N)c1Cl)c1nc2c(C#N)cccc2c(=O)n1-c1cccc(C(N)=O)c1 [Compound 36, (S)-3-(8-cyano-2-(1-((2,6-diamino-5-chloropyrimidin-4-yl)amino)ethyl)-4-oxoquinazolin-3(4H)-yl)benzamide] | 0.299 | > 10 | 0.01
12 | CCNC(=O)Nc1cccc(-n2c([C@@H]3C[C@H](F)CN3c3ncnc(N)c3C#N)nc3cccc(Cl)c3c2=O)c1 [Compound 73, 1-(3-(2-((2S,4S)-1-(6-amino-5-cyanopyrimidin-4-yl)-4-fluoropyrrolidin-2-yl)-5-chloro-4-oxoquinazolin-3(4H)-yl)phenyl)-3-ethylurea] | 0.038 | 5.6 | 0.017
13 | CC[C@H](Nc1nc(N)nc(N)c1Cl)c1nc2c(Cl)ccc(Cl)c2c(=O)n1-c1cccc(C(N)=O)c1 [Compound 19, (S)-3-(5,8-dichloro-2-(1-((2,6-diamino-5-chloropyrimidin-4-yl)amino)propyl)-4-oxoquinazolin-3(4H)-yl)benzamide] | 0.028 | > 10 | 0.003
14 | N#Cc1c(N)nc(N)nc1N[C@H](c1nc2c(F)ccc(Cl)c2c(=O)n1-c1cccc(C(N)=O)c1)C1CC1 [Compound 15, (S)-3-(5-chloro-2-(cyclopropyl((2,6-diamino-5-cyanopyrimidin-4-yl)amino)methyl)-8-fluoro-4-oxoquinazolin-3(4H)-yl)benzamide] | 0.01 | 0.33 | 0.001
15 | C[C@H](Nc1ncnc2[nH]cnc12)c1nc2cccc(Cl)c2c(=O)n1-c1cccc(NC(=O)Nc2c(Cl)cccc2Cl)c1 [Compound 104, (S)-1-(3-(2-(1-((9H-purin-6-yl)amino)ethyl)-5-chloro-4-oxoquinazolin-3(4H)-yl)phenyl)-3-(2,6-dichlorophenyl)urea] | 0.008 | 0.74 | 0.03
16 | CCNC(=O)Nc1cccc(-n2c([C@H](C)Nc3ncnc(N)c3C(=O)O)nc3cccc(Cl)c3c2=O)c1 [Compound 136, (S)-4-amino-6-((1-(5-chloro-3-(3-(3-ethylureido)phenyl)-4-oxo-3,4-dihydroquinazolin-2-yl)ethyl)amino)pyrimidine-5-carboxylic acid] | 1.8 | > 10 | 0.61
17 | Cc1nc(N)nc(N[C@H](c2nc3c(F)ccc(Cl)c3c(=O)n2-c2cccc(C(N)=O)c2)C2CC2)c1C#N [Compound 14, (S)-3-(2-(((2-amino-5-cyano-6-methylpyrimidin-4-yl)amino)(cyclopropyl)methyl)-5-chloro-8-fluoro-4-oxoquinazolin-3(4H)-yl)benzamide] | 0.01 | 0.36 | 0.001
18 | C[C@H](Nc1ncnc(N)c1C#N)c1nc2cccc(Cl)c2c(=O)n1-c1cccc(NC(=O)Nc2ccccc2OCC(=O)O)c1 [Compound 98, (S)-2-(2-(3-(3-(2-(1-((6-amino-5-cyanopyrimidin-4-yl)amino)ethyl)-5-chloro-4-oxoquinazolin-3(4H)-yl)phenyl)ureido)phenoxy)acetic acid] | 0.058 | 3.3 | 0.029
19 | CC[C@H](Nc1nc(N)nc(N)c1Cl)c1nc2cccc(C(F)F)c2c(=O)n1-c1cccc(C(N)=O)c1 [Compound 34, (S)-3-(2-(1-((2,6-diamino-5-chloropyrimidin-4-yl)amino)propyl)-5-(difluoromethyl)-4-oxoquinazolin-3(4H)-yl)benzamide] | 0.022 | 5 | 0.003
20 | C[C@H](Nc1ncnc(N)c1C#N)c1nc2cccc(Cl)c2c(=O)n1-c1cccc(NC(=O)NCCCO)c1 [Compound 128, (S)-1-(3-(2-(1-((6-amino-5-cyanopyrimidin-4-yl)amino)ethyl)-5-chloro-4-oxoquinazolin-3(4H)-yl)phenyl)-3-(3-hydroxypropyl)urea] | 0.009 | 5.6 | 0.004
21 | C[C@H](Nc1ncnc(N)c1C#N)c1nc2cccc(Cl)c2c(=O)n1-c1cccc(NC(=O)NC(C)(C)CCO)c1 [Compound 140, (S)-1-(3-(2-(1-((6-amino-5-cyanopyrimidin-4-yl)amino)ethyl)-5-chloro-4-oxoquinazolin-3(4H)-yl)phenyl)-3-(4-hydroxy-2-methylbutan-2-yl)urea] | 0.006 | 5.1 | 0.005
22 | Cc1c(C(N)=O)cccc1-n1c([C@H](C)Nc2nc(N)nc(N)c2C#N)nc2cccc(Cl)c2c1=O (single isomer, unassigned) [Compound 5] | 0.526 | 0.081 | 0.002
23 | C[C@H](Nc1ncnc(N)c1C#N)c1nc2cccc(Cl)c2c(=O)n1-c1cccc(NC(=O)NC2CCC2)c1 [Compound 123, (S)-1-(3-(2-(1-((6-amino-5-cyanopyrimidin-4-yl)amino)ethyl)-5-chloro-4-oxoquinazolin-3(4H)-yl)phenyl)-3-cyclobutylurea] | 0.007 | 2.2 | 0.003
24 | C[C@H](Nc1nc(N)nc(N)c1C#N)c1nc2c(Cl)ccc(Cl)c2c(=O)n1-c1cccc(C(N)=O)c1 [Compound 3, (S)-3-(5,8-dichloro-2-(1-((2,6-diamino-5-cyanopyrimidin-4-yl)amino)ethyl)-4-oxoquinazolin-3(4H)-yl)benzamide] | 0.012 | 0.46 | 0.0008
25 | CC(O)CNC(=O)Nc1cccc(-n2c([C@H](C)Nc3ncnc(N)c3C#N)nc3cccc(Cl)c3c2=O)c1 (stereo partly drawn) [Compound 129, 1-(3-(2-((S)-1-((6-amino-5-cyanopyrimidin-4-yl)amino)ethyl)-5-chloro-4-oxoquinazolin-3(4H)-yl)phenyl)-3-(2-hydroxypropyl)urea] | 0.009 | 5.6 | 0.004
